# Source: publication PMC11648822, “Lactam Truncation Yields a Dihydroquinazolinone Scaffold with Potent Antimalarial Activity that Targets PfATP4” (Chemmedchem, 2024)
# Values joined by “and” are separate entries in the source; they are usually repeats but may differ in a detail not shown here. Identical values can stand only once.
# System: P. berghei ANKA
# Assay: P. berghei 4-day mouse model
# Type: in vivo
# Conditions: 20 mg/kg p.o. q.d. at 2, 24, 48, 72 h
# Experimental: In this model, mice are infected with P. berghei ANKA asexual blood stage parasites. Compounds are then administered by oral gavage at 20 mg/kg 2, 24, 48, and 72 hours after the parasite infection.
# Each day, a fresh aliquot of the compound stock was diluted 1/10 in water for administration to mice. 8 week old female mice (Ozgene) on day 0 were infected with 2×10^7 P. berghei ANKA‐infected erythrocytes. […] 2 mice were also dosed with artesunate using the same regime at 30 mg/kg. The parasitemia of mice was assessed by visualizing Giemsa‐stained thin blood smears by microscopy and a minimum of 1000 RBCs were counted. To calculate the percent antimalarial activity the following formula was used: 100 ‐ (mean parasitemia treated day 4 post‐infection/mean parasitemia vehicle control day 4 post‐infection)×100. Mice were culled the day following the last oral gavage.
# Briefly, ‘donor’ female Swiss mice were infected intraperitoneally (IP) with blood stage P. berghei parasites constitutively expressing GFP (P. berghei ANKA GFPcon 259cl2).[36] Three days later, groups of 3 ‘acceptor’ Swiss mice were infected intravenously with 1 x 10^7 parasitised red blood cells from the ‘donor mice’. […] Control mice were left untreated. Peripheral blood samples were taken 24 h after administration of the last dose, and parasitemia was measured by flow cytometry (proportion of GFP‐positive cells in 100,000 recorded events using Attune Nxt, ThermoFisher) and microscopic analysis of Giemsa‐stained blood smears. Parasitemia values were averages of 3 mice per group.
structure (smiles),measurement,setting,value
"CN1C(=O)c2ccc(-n3cccn3)cc2NC1(C)C(=O)Nc1cncc(Cl)c1 (centres unmarked) [Compound 33, N‐(5‐Chloropyridin‐3‐yl)‐2,3‐dimethyl‐4‐oxo‐7‐(1H‐pyrazol‐1‐yl)‐1,2,3,4‐tetrahydroquinazoline‐2‐carboxamide]",% parasitemia,day 4,12.8%
same,% reduction in parasitemia,"day 4, versus control",46% and 46.7%
